How the values were obtained:
SNU-16 cells = experiment: Cell proliferation assay (CellTiter Glo); type: cell-based; settings: Homo sapiens, growth inhibition in vitro, 96 hrs
Description: Test method: the cells were added appropriate volume of whole medium to suspend. 100 μl of the cell suspension was added to a 96-well plate and placed in a CO2 incubator overnight. Tested compounds were dissolved in DMSO and subjected to a 3-fold gradient dilution for a total of 10 concentrations. Tested compound and DMSO reference materials were transferred to the corresponding wells containing 100 μl of medium respectively. Incubated in 5% CO2 at 37° C. for 96 hrs. 100 μl of CellTiter-Glo reagent was added to the assay plate and incubated for 10 min at room temperature to stabilize the luminescence signal. The IC50 value was calculated by recording the RLU (relative luminescence unit) using VICTOR TM X5 instrument.

FGFR3 = FGFR3 (Homo sapiens, UniProt P22607); experiment: Kinase assay (mobility shift assay)
Description: (§1) Prepare compounds: dilute test compounds to specific concentration using 100% DMSO

FGFR2 = FGFR2 (Homo sapiens, UniProt P21802); experiment: Kinase assay (mobility shift assay)
Description: as §1

FGFR4 = FGFR4 (Homo sapiens, UniProt P22455); experiment: Kinase assay (mobility shift assay)
Description: as §1

[1] = Pharmacokinetic study of compound of Formula I and maleate salt crystalline form 1 (Example 22); type: in vivo; settings: male, rat, plasma, SD rats, oral, 10 mg/kg, 10% DMSO/10% Solutol/80% Water
Description: Drugs and reagents: 6-(2-chloro-3,5-dimethoxyphenyl)-N-(4-(4-morpholinopiperidin-1-yl)phenyl)-[1,2,4]triazolo[4′, 3′:1,6]pyrido[2,3-d]pyrimidin-2-amine (compound of Formula I), and maleate salt crystalline form 1 of the compound of Formula I used in this study were grounded to fine particles. The material content (purity) was not less than 99.0%.
Experimental animals: SD rats were randomly divided into the compound of Formula I group and maleate salt crystalline form 1 group, each group including three male rats.
Pharmaceutical preparation: each compound was prepared into a clear solution in 10% DMSO/10% Solutol/80% Water solution, the final concentration of each compound was 1 mg/mL.
Administration and sample collection: each suspension was orally administered to fasted SD rats with a dose volume of 10 mL/kg and an administration dose of 10 mg/kg. The blood samples were collected in EDTA-K pre-anticoagulantion tubes before administration (0 h) and at 0.25 h, 0.5 h, 1 h, 2 h, 4 h, 7 h and 24 h after administration. The plasma was separated from the samples by centrifugation at 4000 rpm for 10 minutes at 4° C. The plasma was collected and stored at −80° C. for analysis.
The samples were analyzed by AB4000 API LC/MS combined with HPLC. Under liquid chromatography conditions, a phenomenex C18 2.6 u (50×2.1 mm) column was used as the stationary phase, acetonitrile-water and 0.1% formic acid were used as the mobile phase, and the injection volume was 10 μL.

[2] = Stability assessment (influencing factors, 14 days; XRD, TGA, HPLC); type: physicochemical; settings: for Crystalline form (XRD) / Decrease value of the main ingredient content (HPLC) / Weight loss (TGA): 14th day
Description: Samples and preparation of experimental: An appropriate amount of maleate salt crystalline form 1, methanesulfonate salt crystalline form 1 and the compound of Formula I were put in watch glasses, and then spread into a thin layer about 3-5 mm in thickness.
Experimental conditions: Under conventional (25° C., avoid light), high temperature (60° C., avoid light), high temperature and high humidity (40° C./75% RH, open and avoid light), light (25° C., 4500 lux±500 lux, open) and oxidation (40° C., container closure containing urea hydrogen peroxide, open and avoid light) conditions for 14 days.
Test items: Sampled on 0th day and 14th day, the XRD, TGA and HPLC were tested and compared, the test results on the 14th day were show in Table 27.

[3] = Hygroscopicity assessment by dynamic vapor sorption (DVS); type: physicochemical; settings: weight change between 0% RH to 80% RH, 25° C.
Description: The hygroscopicity of the sample (the sample is a variety of crystal forms shown in Table 26) was tested using dynamic vapor sorption (DVS) instrument, and the water uptake of the sample at 0% RH (relative humidity) to 80% RH was tested.

NCI-H1581 cells = experiment: cells; settings: Homo sapiens, NCI-H1581, read-out: IC50 on NCI-H1581 cells
Description: 100 μl of CellTiter-Glo reagent was added to the assay plate and incubated for 10 min at room temperature to stabilize the luminescence signal.

[4] = Pharmacokinetic study of compound of Formula I and salt forms (Example 23); type: in vivo; settings: male, rat, plasma, SD rats, oral, 10 mg/kg, prepared in purified water 0.5 mg/mL
Description: Drugs and reagents: 6-(2-chloro-3,5-dimethoxyphenyl)-N-(4-(4-morpholinopiperidin-1-yl)phenyl)-[1,2,4]triazolo[4′,3′:1,6]pyrido[2,3-d]pyrimidin-2-amine (compound of Formula I) and salt forms thereof which include malate salt crystalline form, tartrate salt crystalline form, phosphate salt crystalline form, methanesulfonate salt crystalline form, hydrochloride salt crystalline form, fumarate salt crystalline form, citrate salt crystalline form, besylate salt crystalline form used in this study were ground to fine particles.
Experimental animals: SD rats were randomly divided into the compound of Formula I group and each salt crystalline form of the compound of Formula I group, each group including three male rats.
Pharmaceutical preparation: each compound was prepared in purified water, wherein, the mesylate salt crystalline form, hydrochloride salt crystalline form and besylate salt crystalline form were prepared into a clear solution, the malate salt crystalline form, tartrate salt crystalline form, phosphate salt crystalline form, fumarate salt crystalline form, citrate salt crystalline form and sulfate salt crystalline form were prepared into a suspension, and final concentration of each compound was 0.5 mg/mL. […]
The samples were analyzed by AB4000 API LC/MS combined with HPLC. […]

[5] = conventional (25° C., avoid light)
[6] = high temperature (60° C., avoid light)
[7] = high temperature and high humidity (40° C./75% RH)
[8] = oxidation (40° C., urea hydrogen peroxide)

FGFR2, sequence (P21802 22-821, species assumed): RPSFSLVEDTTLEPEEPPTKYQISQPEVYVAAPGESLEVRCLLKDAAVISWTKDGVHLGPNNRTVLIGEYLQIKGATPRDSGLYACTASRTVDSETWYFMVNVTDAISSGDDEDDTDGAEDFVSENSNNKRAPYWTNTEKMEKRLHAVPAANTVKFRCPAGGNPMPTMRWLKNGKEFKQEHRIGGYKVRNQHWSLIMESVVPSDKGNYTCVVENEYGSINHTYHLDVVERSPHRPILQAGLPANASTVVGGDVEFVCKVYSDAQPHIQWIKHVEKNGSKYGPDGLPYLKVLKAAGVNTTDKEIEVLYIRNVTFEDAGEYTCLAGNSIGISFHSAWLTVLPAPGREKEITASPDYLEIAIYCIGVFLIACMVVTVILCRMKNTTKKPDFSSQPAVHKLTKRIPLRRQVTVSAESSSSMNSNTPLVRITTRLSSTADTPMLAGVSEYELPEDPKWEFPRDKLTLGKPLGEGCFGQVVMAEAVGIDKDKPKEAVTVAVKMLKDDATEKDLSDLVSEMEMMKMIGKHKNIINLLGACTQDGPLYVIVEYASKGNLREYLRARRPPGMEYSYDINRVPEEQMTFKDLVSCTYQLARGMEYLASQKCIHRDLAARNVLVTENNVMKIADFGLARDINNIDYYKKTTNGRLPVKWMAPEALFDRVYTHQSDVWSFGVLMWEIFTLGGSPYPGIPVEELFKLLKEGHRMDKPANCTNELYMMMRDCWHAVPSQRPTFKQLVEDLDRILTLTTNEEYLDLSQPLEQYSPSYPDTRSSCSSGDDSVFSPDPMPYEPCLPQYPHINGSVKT
FGFR4, sequence (P22455 22-802, species assumed): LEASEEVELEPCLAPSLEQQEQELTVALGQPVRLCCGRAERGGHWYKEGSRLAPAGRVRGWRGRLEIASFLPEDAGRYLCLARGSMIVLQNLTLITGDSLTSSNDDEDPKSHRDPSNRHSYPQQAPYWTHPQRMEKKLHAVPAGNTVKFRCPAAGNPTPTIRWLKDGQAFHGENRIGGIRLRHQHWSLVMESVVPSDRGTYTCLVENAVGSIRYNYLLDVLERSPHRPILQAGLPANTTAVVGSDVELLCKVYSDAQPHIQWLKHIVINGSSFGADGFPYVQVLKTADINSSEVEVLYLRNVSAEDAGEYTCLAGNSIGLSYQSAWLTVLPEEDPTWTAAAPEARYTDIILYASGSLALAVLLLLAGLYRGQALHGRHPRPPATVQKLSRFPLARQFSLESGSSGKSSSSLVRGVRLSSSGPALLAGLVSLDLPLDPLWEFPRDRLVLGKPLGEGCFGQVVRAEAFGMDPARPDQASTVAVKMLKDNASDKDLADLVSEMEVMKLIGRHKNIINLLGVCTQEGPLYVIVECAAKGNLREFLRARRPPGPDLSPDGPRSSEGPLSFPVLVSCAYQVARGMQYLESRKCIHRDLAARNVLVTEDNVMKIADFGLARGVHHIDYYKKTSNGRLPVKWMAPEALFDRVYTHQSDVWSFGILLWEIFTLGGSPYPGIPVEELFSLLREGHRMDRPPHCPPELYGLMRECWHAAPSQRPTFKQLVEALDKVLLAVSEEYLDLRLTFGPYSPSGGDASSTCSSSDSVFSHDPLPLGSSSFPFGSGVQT
FGFR3, sequence (P22607 23-806, species assumed): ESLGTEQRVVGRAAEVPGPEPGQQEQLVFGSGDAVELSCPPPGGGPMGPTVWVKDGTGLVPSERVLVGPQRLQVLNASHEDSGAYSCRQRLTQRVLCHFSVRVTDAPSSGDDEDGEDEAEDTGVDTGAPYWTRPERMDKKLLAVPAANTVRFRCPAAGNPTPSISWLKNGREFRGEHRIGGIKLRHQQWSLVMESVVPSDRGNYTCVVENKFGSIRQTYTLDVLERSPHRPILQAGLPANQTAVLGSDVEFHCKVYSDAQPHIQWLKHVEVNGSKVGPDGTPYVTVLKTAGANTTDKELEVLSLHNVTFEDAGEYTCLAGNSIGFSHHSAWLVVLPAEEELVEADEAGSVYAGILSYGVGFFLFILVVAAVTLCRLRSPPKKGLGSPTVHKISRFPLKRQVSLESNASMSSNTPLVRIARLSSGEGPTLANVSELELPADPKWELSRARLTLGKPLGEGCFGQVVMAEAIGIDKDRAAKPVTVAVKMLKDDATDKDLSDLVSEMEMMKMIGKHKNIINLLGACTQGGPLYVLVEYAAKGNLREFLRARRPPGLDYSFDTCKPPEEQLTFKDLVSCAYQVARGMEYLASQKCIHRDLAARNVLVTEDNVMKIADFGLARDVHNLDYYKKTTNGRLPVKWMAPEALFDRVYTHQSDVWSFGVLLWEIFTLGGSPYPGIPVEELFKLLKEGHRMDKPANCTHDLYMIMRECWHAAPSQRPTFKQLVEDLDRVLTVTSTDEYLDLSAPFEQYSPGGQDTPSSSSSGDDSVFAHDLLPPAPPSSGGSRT

Which IC50 (SNU-16 cells) does the source give for COc1cc(OC)c(Cl)c(-c2cc3cnc(Nc4ccc(N5CCC(N6CCOCC6)CC5)cc4)nc3n3cnnc23)c1 [compound of Formula I, 6-(2-chloro-3,5-dimethoxyphenyl)-N-(4-(4-morpholinopiperidin-1-yl)phenyl)-[1,2,4]triazolo[4′,3′:1,6]pyrido[2,3-d]pyrimidin-2-amine] here?
Its IC50 is less than 1 nM.

And the IC50 (FGFR3)?
The IC50 was 1.2 nM.

And the IC50 (FGFR2)?
The IC50 was 1.7 nM.

And the IC50 (FGFR4)?
The IC50 was 21 nM.

And the AUC(0-inf) [1]?
Its AUC(0-inf) is 6520 ng·h/mL.

What about the Cmax [1] of the same compound?
Its Cmax is 443 ng/mL.

And the Tmax [1]?
The Tmax was 6 h.

And the half-life [1]?
The half-life was 7.9 h.

What about the AUC(0-t) ([1]; read-out: AUC(0-24)) of the same compound?
Its AUC(0-t) is 5870 ng·h/mL.

What about the “Crystalline form (XRD)” value [2, 5] of the same compound?
Its value is “unchanged”.

What about the “Decrease value of the main ingredient content (HPLC)” value (shortened to “Decrease value”) [2, 5] of the same compound?
The value was less than 0.4%.

And the “Weight loss (TGA)” value [2, 5]?
Its value is 20%-22%.

What about the “Crystalline form (XRD)” value [2, 6] of the same compound?
Its value is “transformed”.

And the “Decrease value” value [2, 6]?
Its value is 13.5%.

What about the “Weight loss (TGA)” value [2, 6] of the same compound?
The value was “about 18%”.

What about the “Decrease value” value [2, 7] of the same compound?
Its value is less than 0.4%.

What about the “Weight loss (TGA)” value [2, 7] of the same compound?
Its value is 20%-22%.

What about the “Crystalline form (XRD)” value ([2]; high temperature and high humidity (40° C./75% RH, open, avoid light)) of the same compound?
The value was “decrease”.

What about the “Weight loss (TGA)” value ([2]; light (25° C., 4500 lux±500 lux)) of the same compound?
Its value is 20%-22%.

What about the “Crystalline form (XRD)” value ([2]; light (25° C., 4500 lux±500 lux, open)) of the same compound?
Its value is “transformed”.

What about the “Decrease value” value [2, 8] of the same compound?
The value was 40.3%.

And the “Weight loss (TGA)” value [2, 8]?
Its value is “about 27%”.

And the “Crystalline form (XRD)” value ([2]; oxidation (40° C., urea hydrogen peroxide, open, avoid light))?
The value was “transformed”.

And the “stability of crystalline form (XRD, overall statement)” value ([2]; 14 days, all conditions)?
The value was “relatively low”.

What about the water uptake [3] of the same compound?
The water uptake was 15.3%.

What about the IC50 (NCI-H1581 cells) of the same compound?
The IC50 was 2 nM.

And the Cmax [4]?
Its Cmax is 179 ng/mL.

What about the AUC(0-t) ([4]; read-out: AUC(0-24)) of the same compound?
Its AUC(0-t) is 786 ng·h/mL.
